This note sets out measurements from patent US20240417406A1, “NITROGEN-CONTAINING TRICYCLIC COMPOUND AND PHARMACEUTICAL USE THEREOF” (JAPAN TOBACCO INC., priority 2021, published 2024).

The structures appear in SMILES notation.

The assay addresses human PDHK2 (hPDHK2) (Homo sapiens (Human), UniProt Q15119). As to the kind of experiment: Inhibitory action of PDHK2 activity (PDH/hPDHK2 complex, residual PDH activity by NADH absorbance at 340 nm). It counts as biochemical. The conditions noted are these: FLAG-tagged recombinant hPDHK2 with porcine heart PDH complex; PDHK reaction 45 min at room temperature. On the procedure: In the case of human PDHK2 (hPDHK2, NCBI Reference Database Accession number NM_002611.4), modified hPDHK2 cDNA wherein FLAG-Tag sequence was added to the N terminal of hPDHK2 cDNA clone (pReceiver-M01/PDK2-GeneCopoeia) as the base was prepared by polymerase chain reaction (PCR) and ligated to the NdeI/EcoRI site of pET-17b vector (Merck KGaA, Catalog Number 69663-3). The recombinant construct was transformed into Escherichia coli DH5a. The recombinant clones were identified, and plasmid DNA was isolated and subjected to the DNA sequence analysis. One clone which had the expected nucleic acid sequence was selected for expression work.
For expression of hPDHK2 activity, Escherichia coli strain BL21(DE3) cells (Merck KGaA, Catalog Number 69450-4) were transformed with the pET17b vector containing modified hPDHK2 cDNA. The Escherichia coli were grown to an optical density 0.6 ([…]) at 30° C. Protein expression was induced by the addition of 500 μmol/L isopropyl-β-thiogalactopyranoside. The Escherichia coli were cultured at 20° C. for 17 to for 18 hr and harvested by centrifugation. The harvested Escherichia coli was resuspended in a suspension buffer (20 mmol/L HEPES-NaOH, 500 mmol/L sodium chloride, 1% ethylene glycol, 0.1% Pluronic (registered trademark) F-68 (pH 8.0), cOmplete, EDTA-free (Roche) (pH 8.0)), and disrupted by a microfluidizer M-110H (MIZUHO INDUSTRIAL CO., LTD.). The precipitate was removed by centrifugation and the supernatant was added to DDDDK-tagged Protein PURIFICATION GEL (MEDICAL & BIOLOGICAL LABORATORIES CO., LTD., Code No. 3329). DDDDK-tagged Protein PURIFICATION GEL was washed with a washing buffer (20 mmol/L HEPES-NaOH, 500 mmol/L sodium chloride, 1% ethylene glycol, 0.1% Pluronic F-68 (pH 8.0)) and the bound protein was eluted with elution buffer 1 (20 mmol/L HEPES-NaOH, 100 μg/mL peptide (amino acid sequence DYKDDDDK) (SEQ ID NO: 1), 500 mmol/L sodium chloride, 1% ethylene glycol, 0.1% Pluronic F-68 (pH 8.0)). The eluted fractions containing FLAG-Tagged protein were pooled, concentrated by an ultrafiltration method, added to a gel filtration column (HiLoad 26/60 Superdex 200 (GE Healthcare Life Sciences, Code No. 17-1070-01)), and eluted with elution buffer 2 (20 mmol/L HEPES-NaOH, 150 mmol/L sodium chloride, 0.5 mmol/L ethylenediaminetetraacetic acid (EDTA), 1% ethylene glycol, 0.1% Pluronic F-68 (pH 8.0)). The eluted fractions were pooled and preserved at −80° C.
PDH (porcine heart PDH complex, Sigma P7032) and 0.5 μg/mL hPDHK2 were mixed in an assay buffer (50 mmol/L 3-morpholinopropanesulfonic acid (pH 7.0), 20 mmol/L dipotassium hydrogen phosphate, 60 mmol/L potassium chloride, 2 mmol/L magnesium chloride, 0.4 mmol/L EDTA, 0.2% poloxamer, 2 mmol/L dithiothreitol) so that the final concentration of PDH was 0.025 U/mL, and the mixture was incubated at 4° C. overnight to obtain a PDH/hPDHK2 complex solution.
PDH was mixed with the assay buffer so that the final concentration was 0.025 U/mL, and the mixture was incubated at 4° C. overnight to prepare a PDH solution.
The test compounds were diluted with DMSO. […] DMSO (1.5 μL) was added to control wells instead of test compound. In addition, DMSO (1.5 μL) was added to blank wells instead of the test compound, and PDH solution was added instead of the PDH/hPDHK2 complex solution. To measure an inhibitory action of the test compound on the PDHK activity inherent in the PDH solution, a test compound was added and the PDH solution instead of the PDH/hPDHK2 complex solution was added to a blank+test compound well.
Then, 10 μL of substrates (5 mmol/L sodium pyruvate, 5 mmol/L Coenzyme A, 12 mmol/L NAD, 5 mmol/L thiamine pyrophosphate, diluted with assay buffer) were added. The mixture was incubated at room temperature for 90 min, and the residual PDH activity was measured.
The absorbance of each well at 340 nm was measured using a microplate reader to detect NADH produced by the PDH reaction. […]
As a reminder, the IC50 is the point on the concentration scale where inhibition reaches its midpoint. Turning to `C[C@H]1Cn2nccc2-c2onc([C@@](C)(O)C(F)(F)F)c21` (racemic) [Example 17], the IC50 is 0.0213 µM.
Consider `C[C@H]1Cn2nc(OCC(C)(C)O)cc2-c2onc([C@@](C)(O)C(F)(F)F)c21` (racemic) [Example 14], for which the IC50 is 0.0144 µM.
Take `C[C@H]1Cn2nc(C34CCC(C#N)(CC3)CC4)cc2-c2cnc([C@@](C)(O)C(F)(F)F)n21` [Example 71, 4-((S)-5-methyl-3-((R)-1,1,1-trifluoro-2-hydroxypropan-2-yl)-5,6-dihydroimidazo[1,5-a]pyrazolo[5,1-c]pyrazin-9-yl)bicyclo[2.2.2]octane-1-carbonitrile]: the IC50 was found to be 0.0066 µM.
Turning to `C[C@H]1Cn2nc(C34CCC(CO)(CC3)C4)cc2-c2cnc([C@@](C)(O)C(F)(F)F)n21` [Example 87], the concentration for half-maximal inhibition (IC50) was 0.011 µM.
For `C[C@H]1Cc2c(cnn2CC#N)-c2onc([C@@](C)(O)C(F)(F)F)c21` (racemic) [Example 50], the IC50 is 0.0145 µM.
As to `C[C@H]1Cc2c(cnn2C(C)(C)C)-c2onc([C@@](C)(O)C(F)(F)F)c21` (racemic) [Example 16], the IC50 stood at 0.0122 µM.
As to `C[C@H]1Cc2nn(C3CC(C#N)C3)cc2-c2onc([C@@](C)(O)C(F)(F)F)c21` (stereo in doubt) [Example 27], the IC50 was found to be 0.0315 µM.
In the case of `C[C@H]1Cn2c(-c3ccc(F)cc3)nnc2-c2onc([C@@](C)(O)C(F)(F)F)c21` [Example 7], the IC50 amounted to 0.0092 µM.
Regarding `C[C@H]1Cn2nc(C34CCC(C(C)(C)O)(CC3)CO4)cc2-c2cnc([C@@](C)(O)C(F)(F)F)n21` [Example 98, (R)-1,1,1-trifluoro-2-((S)-9-(4-(2-hydroxypropan-2-yl)-2-oxabicyclo[2.2.2]octan-1-yl)-5-methyl-5,6-dihydroimidazo[1,5-a]pyrazolo[5,1-c]pyrazin-3-yl)propan-2-ol], the IC50 was 0.0091 µM.
`C[C@H]1Cn2nc(N3CC4CC3C4)cc2-c2cnc([C@@](C)(O)C(F)(F)F)n21` [Example 83]: the IC50 is 0.0186 µM.
For `C[C@H]1Cc2c(cnn2CC(C)(C)O)-c2onc([C@@](C)(O)C(F)(F)F)c21` (racemic) [Example 39] the value was 0.0144 µM; for `C[C@H]1Cn2c(nnc2C2(C(F)(F)F)CC2)-c2onc([C@@](C)(O)C(F)(F)F)c21` [Example 2], 0.0192 µM.
Turning to `C[C@H]1Cn2nc(N3CC4C(C3)C4(F)F)cc2-c2cnc([C@@](C)(O)C(F)(F)F)n21` (some centres unmarked) [Example 78], the half-maximal inhibitory concentration (IC50) came to 0.0151 µM.
For the compound `C[C@H]1Cn2nc(C34CCC(C#N)(CC3)CO4)cc2-c2cnc([C@@](C)(O)C(F)(F)F)n21` [Example 93, 1-((S)-5-methyl-3-((R)-1,1,1-trifluoro-2-hydroxypropan-2-yl)-5,6-dihydroimidazo[1,5-a]pyrazolo[5,1-c]pyrazin-9-yl)-2-oxabicyclo[2.2.2]octane-4-carbonitrile], the IC50 was determined as 0.0334 µM.
As to `C[C@H]1Cc2nn(C3CC(C#N)C3)cc2-c2onc([C@@](C)(O)C(F)(F)F)c21` (stereo in doubt) [Example 30], the half-maximal inhibitory concentration (IC50) stood at 0.0212 µM.
Take `C[C@H]1Cn2nc(OCC#N)cc2-c2onc([C@@](C)(O)C(F)(F)F)c21` (racemic) [Example 42]: the IC50 came out at 0.0192 µM.
Consider `C[C@H]1Cn2nc(C(F)(F)F)cc2-c2cnnc([C@@](C)(O)C(F)(F)F)c21` [Example 100, (R)-1,1,1-trifluoro-2-((R)-5-methyl-9-(trifluoromethyl)-5,6-dihydropyrazolo[1′,5′:1,2]pyrido[3,4-d]pyridazin-4-yl)propan-2-ol], for which the IC50 worked out at 0.0111 µM.
As for `C[C@H]1Cc2c(cnn2-c2ccccc2)-c2cnc(C(C)(O)C(F)(F)F)n21` (stereo in doubt) [Example 73, (S)-1,1,1-trifluoro-2-((S)-5-methyl-3-phenyl-4,5-dihydro-3H-imidazo[1,5-a]pyrazolo[4,3-c]pyridin-7-yl)propan-2-ol], the IC50 was 0.0157 µM.
For `C[C@H]1Cc2c(cnn2CCC(C)(C)O)-c2onc([C@@](C)(O)C(F)(F)F)c21` [Example 40] the value was 0.0058 µM; for `C[C@@H]1Cc2nn(CC#N)cc2-c2onc([C@](C)(O)C(F)(F)F)c21` [Example 49], 0.0195 µM; for `C[C@H]1Cn2nc(OCCC(C)(C)O)cc2-c2onc([C@@](C)(O)C(F)(F)F)c21` [Example 62, 2-methyl-4-(((R)-4-methyl-3-((R)-1,1,1-trifluoro-2-hydroxypropan-2-yl)-4,5-dihydroisoxazolo[5,4-c]pyrazolo[1,5-a]pyridin-8-yl)oxy)butan-2-ol], 0.008 µM.
For the compound `C[C@H]1Cn2nc(OCC34CC(C#N)(C3)C4)cc2-c2cnc([C@@](C)(O)C(F)(F)F)n21` [Example 97, 3-((((S)-5-methyl-3-((R)-1,1,1-trifluoro-2-hydroxypropan-2-yl)-5,6-dihydroimidazo[1,5-a]pyrazolo[5,1-c]pyrazin-9-yl)oxy)methyl)bicyclo[1.1.1]pentane-1-carbonitrile], the IC50 turned out to be 0.0088 µM.
Turning to `C[C@H]1Cc2nn([C@H]3CC[C@](C)(O)CC3)cc2-c2onc([C@@](C)(O)C(F)(F)F)c21` [Example 105, (1S,4r)-1-methyl-4-((S)-4-methyl-3-((R)-1,1,1-trifluoro-2-hydroxypropan-2-yl)-4,5-dihydro-7H-isoxazolo[5,4-e]indazol-7-yl)cyclohexan-1-ol], the concentration for half-maximal inhibition (IC50) amounted to 0.01 µM.
For `C[C@H]1Cn2nc(N3CCC4(CC3)COC4)cc2-c2cnc([C@@](C)(O)C(F)(F)F)n21` [Example 77], the IC50 stood at 0.0144 µM.
For `C[C@H]1Cn2nc(N3C[C@H]4COC[C@H]4C3)cc2-c2cnc([C@@](C)(O)C(F)(F)F)n21` [Example 80] the value was 0.0434 µM.
For `C[C@H]1Cn2nc(OCC3(C#N)CC3)cc2-c2onc([C@@](C)(O)C(F)(F)F)c21` [Example 33] the value was 0.0087 µM; for `C[C@H]1Cc2[nH]ncc2-c2onc([C@@](C)(O)C(F)(F)F)c21` (racemic) [Example 20], 0.0226 µM.
For `C[C@H]1Cc2nn(C)cc2-c2onc([C@@](C)(O)C(F)(F)F)c21` (racemic) [Example 23] the value was 0.0188 µM; for `C[C@H]1Cn2nc(C3(F)CC3)cc2-c2cnnc([C@@](C)(O)C(F)(F)F)c21` (racemic) [Example 101, (R)-1,1,1-trifluoro-2-[(R)-9-(1-fluorocyclopropyl)-5-methyl-5,6-dihydropyrazolo[1′,5′:1,2]pyrido[3,4-d]pyridazin-4-yl]propan-2-ol and (S)-1,1,1-trifluoro-2-[(S)-9-(1-fluorocyclopropyl)-5-methyl-5,6-dihydropyrazolo[1′,5′:1,2]pyrido[3,4-d]pyridazin-4-yl]propan-2-ol], 0.0292 µM.
As to `C[C@H]1Cn2nc(C34CCC(CO)(C3)C4)cc2-c2cnc([C@@](C)(O)C(F)(F)F)n21` [Example 92], the IC50 was 0.0319 µM.
Regarding `C[C@H]1Cn2c(nnc2C2(F)CC2)-c2onc([C@@](C)(O)C(F)(F)F)c21` [Example 8], the IC50 worked out at 0.0117 µM.
With `C[C@H]1Cn2nc(OCF)cc2-c2onc([C@@](C)(O)C(F)(F)F)c21` [Example 64, (R)-1,1,1-trifluoro-2-((R)-8-(fluoromethoxy)-4-methyl-4,5-dihydroisoxazolo[5,4-c]pyrazolo[1,5-a]pyridin-3-yl)propan-2-ol], the IC50 stood at 0.0075 µM.
